Measurements taken from patent US20190071571A1, “COLORING COMPOSITION, DICHROIC DYE COMPOUND, LIGHT ABSORPTION ANISOTROPIC FILM, LAMINATE, AND IMAGE DISPLAY DEVICE” (FUJIFILM Corporation, priority 2016, published 2019).

Experiment: Solubility of dichroic dye compound in cyclopentanone (absorbance method)
Format: physicochemical
Details: for Solubility (evaluation grade) / Solubility (wt %): in cyclopentanone; for solubility (in words): solubility to solvent, comparison between examples
Method: The solubilities of the dichroic dye compounds D1 and D4 to D24 used in the examples and the comparative examples were measured as follows.
0.1 g of each dichroic dye compound was added to 2 g of cyclopentanone, and dissolved with ultrasonic waves. Then, 0.2 g of the solution portion was weighed and diluted with 45 g of cyclopentanone. The absorption spectrum of the cyclopentanone solution was measured to obtain an absorbance A (for solubility measurement).
Separately, 0.1 mg of each dichroic dye compound was completely dissolved in 100 g of cyclopentanone, and the absorption spectrum was measured to obtain an absorbance B (having a known concentration).
From data of the obtained two absorbances, the solubility was calculated by the following formula.
The evaluation standards are as follows.
A: The solubility is 2.5 mass % or greater.
B: The solubility is 1.0 mass % or greater and ess than 2.5 mass %.
C: The solubility is less than 1.0 mass %.

Compound | Solubility (wt %) | solubility (in words) | Solubility (evaluation grade)
C=CC(=O)OCCCCOc1ccc(/N=N/c2ccc(/N=N/c3ccc(/N=N/c4ccc(OCCCCOC(=O)C=C)cc4)cc3C)cc2)cc1 [D1] | 4.5 | more excellent solubility | A (The solubility is 2.5 mass % or greater.)
C=CC(=O)OCCCCOc1ccc(/N=N/c2ccc(/N=N/c3ccc(OCCCCOC(=O)C=C)cc3C)cc2)cc1 [D6] | 18 | more excellent solubility | A (The solubility is 2.5 mass % or greater.)
C=CC(=O)OCCCCOc1ccc(/N=N/c2ccc(/N=N/c3ccc(/N=N/c4ccc(OCCCCOC(=O)C=C)cc4)cc3OCCOCCOCCOC)cc2)cc1 [D8] | 4.8 | more excellent solubility | A (The solubility is 2.5 mass % or greater.)
C=CC(=O)OCCOc1ccc(/N=N/c2ccc(/N=N/c3ccc(/N=N/c4ccc(OCCOC(=O)C=C)cc4)cc3C)cc2)cc1 [D9] | 4.3 |  | A (The solubility is 2.5 mass % or greater.)
C=CC(=O)OCCCCOc1ccc(/N=N/c2ccc(/N=N/c3ccc(/N=N/c4ccc(OCCCCCCC)cc4)cc3)c(C)c2)cc1 [D10] | 2.8 |  | A (The solubility is 2.5 mass % or greater.)
C=CC(=O)OCCCCOc1ccc(/N=N/c2ccc(/N=N/c3ccc(/N=N/c4ccc(OCCCCOC(=O)C=C)cc4)c4ccccc34)cc2)cc1 [D13, reference compound] | 1.5 |  | B (The solubility is 1.0 mass % or greater and ess than 2.5 mass %.)
C=CC(=O)OCCCCOc1ccc(N=Nc2ccc(N=Nc3ccc(N=Nc4ccc(OCCCCOC(=O)C=C)cc4)c(OC)c3)c(OC)c2)cc1 [D14] | 3.1 |  | A (The solubility is 2.5 mass % or greater.)
C=CC(=O)OCCCCOc1ccc(N=Nc2ccc(N=Nc3ccc(N=Nc4ccc(OCCCCOC(=O)C=C)cc4)c(C)c3)c(OC)c2)cc1 [D17] | 3.2 |  | A (The solubility is 2.5 mass % or greater.)
C=CC(=O)OCCCCOc1ccc(N=Nc2ccc(N=Nc3ccc(N=Nc4ccc(OCCCCOC(=O)C=C)c(C(F)(F)F)c4)cc3)cc2)cc1 [D19] | >5 |  | A (The solubility is 2.5 mass % or greater.)
C=CC(=O)OCCCCOc1ccc(N=Nc2ccc(N=Nc3ccc(N=Nc4ccc(OCCCCOC(=O)C=C)cc4OCCOC)cc3C)cc2)c(OCCOC)c1 [D20] | >5 |  | A (The solubility is 2.5 mass % or greater.)
C=CC(=O)OCCCCOc1ccc(N=Nc2ccc(N=Nc3ccc(N=Nc4ccc(N=Nc5ccc(OCCCCOC(=O)C=C)cc5)cc4)cc3)cc2)cc1 [D22, reference compound] | 0.3 |  | C (The solubility is less than 1.0 mass %.)

Second part, led by results:

Solubility (wt %) | solubility (in words) | Compound | Solubility (evaluation grade)
5.7 |  | C=CC(=O)OCCCCOc1ccc(/N=N/c2ccc(/N=N/c3ccc(OCCCCOC(=O)C=C)cc3)cc2)cc1 [D4] | A (The solubility is 2.5 mass % or greater.)
6.8 |  | C=CC(=O)OCCCCOc1ccc(/N=N/c2ccc(/N=N/c3ccc(OCCCCOC(=O)C=C)c(C)c3)cc2)cc1 [D5] | A (The solubility is 2.5 mass % or greater.)
42 | more excellent solubility | C=CC(=O)OCCCCOc1ccc(/N=N/c2ccc(/N=N/c3ccc(OCCCCOC(=O)C=C)c(C(F)(F)F)c3)cc2)cc1 [D7] | A (The solubility is 2.5 mass % or greater.)
3.3 |  | Cc1cc(/N=N/c2ccc(OCCCCOCC3(C)COC3)cc2)ccc1/N=N/c1ccc(/N=N/c2ccc(OCCCCOCC3(C)COC3)cc2)cc1 [D11] | A (The solubility is 2.5 mass % or greater.)
0.8 | the solubility to a solvent deteriorates | C=CC(=O)OCCCCOc1ccc(/N=N/c2ccc(/N=N/c3ccc(/N=N/c4ccc(OCCCCOC(=O)C=C)cc4)cc3)cc2)cc1 [D12, reference compound] | C (The solubility is less than 1.0 mass %.)
4.3 |  | C=CC(=O)OCCCCOc1ccc(N=Nc2ccc(N=Nc3ccc(N=Nc4ccc(OCCCCOC(=O)C=C)c(OC)c4)cc3C)cc2)cc1OC [D15] | A (The solubility is 2.5 mass % or greater.)
5.0 | more excellent solubility | C=CC(=O)OCCCCOc1ccc(N=Nc2ccc(N=Nc3ccc(N=Nc4ccc(OCCCCOC(=O)C=C)cc4OC)cc3C)cc2)c(OC)c1 [D16] | A (The solubility is 2.5 mass % or greater.)
2.1 |  | C=CC(=O)OCCCCOc1ccc(N=Nc2ccc(N=Nc3ccc(N=Nc4ccc(N=Nc5ccc(OCCCCOC(=O)C=C)cc5)c(OC)c4)c(OC)c3)cc2)cc1 [D18] | B (The solubility is 1.0 mass % or greater and ess than 2.5 mass %.)
1.5 |  | C=CC(=O)OCCCCOc1ccc(N=Nc2ccc(N=Nc3ccc(N=Nc4ccc(OCCCCOC(=O)C=C)cc4O)cc3)c(C)c2)cc1 [D21] | B (The solubility is 1.0 mass % or greater and ess than 2.5 mass %.)
1.2 |  | C=CC(=O)OCCCCOc1ccc(N=Nc2ccc(N=Nc3ccc(N=Nc4ccc(N=Nc5ccc(N=Nc6ccc(OCCCCOC(=O)C=C)c(C(F)(F)F)c6)c(C)c5)cc4)c(C)c3)cc2)cc1C(F)(F)F [D23] | B (The solubility is 1.0 mass % or greater and ess than 2.5 mass %.)
<0.1 |  | CCCCc1ccc(N=Nc2ccc(N=Nc3c(C)cc(N=Nc4cc(C)c(N=Nc5ccc(N=Nc6ccc(CCCC)cc6)cc5)c(C)c4)cc3C)cc2)cc1 [D24, reference compound] | C (The solubility is less than 1.0 mass %.)
